From US20230085307A1, “PYRIDAZINONE COMPOUND AND HERBICIDE” (NISSAN CHEMICAL CORPORATION, priority 2019, published 2023)

How the values were obtained:
chickweed = experiment: Test Example 5: herbicidal effect by foliage application, plastic box (Table 20, symbol P); format: in vivo, common chickweed (Stellaria media); details: foliage application, three weeks after application; for P: chickweed, herbicidal effect grade: 320 g/ha
How it was run: (§1)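 Plants were sown into sterilized diluvial soil under about 1.5 cm cover and kept in a greenhouse at 25° C. to 30° C. Fourteen days on, foliage received an even spray of the diluted emulsion. Herbicidal or crop effect was judged three weeks afterwards.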

Italian ryegrass = experiment: Test Example 5: herbicidal effect by foliage application, plastic box (Table 20, symbol K); format: in vivo, Italian ryegrass (Lolium multiflorum); details: foliage application, three weeks after application; for K: Italian ryegrass, herbicidal effect grade: 320 g/ha
How it was run: as §1

oval-leafed pondweed [1] = experiment: Test Example 1: herbicidal activity, application before weed generation under submerged conditions (Table 16, symbol C); format: in vivo, oval-leafed pondweed (Monochoria vaginalis); details: for Herbicidal effect, C: oval-leafed pondweed: amount of applied herbicide 320 g/ha
How it was run: (§2)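 Submerged Wagner pots (alluvial soil, 4 cm water) sown with weed seeds and planted with 2.5-leaf rice seedlings; emulsifiable concentrate diluted in water applied to water surface on sowing day. Held in greenhouse at 25-30 °C; injury scored 0-5 by herbicidal rate after three weeks.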

Japanese bulrush [2] = experiment: Test Example 2: herbicidal activity, application during weed generation under submerged conditions (Table 17, symbol B); format: in vivo, Japanese bulrush (Schoenoplectus juncoides); details: AAH 320 g/ha; application during weed generation, submerged conditions
How it was run: (§3)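 Alluvial soil in Wagner pots was flooded to 4 cm depth and sown with the three weeds together; pots were kept in a greenhouse at 25° C. to 30° C. At the one to two leaf stage, an emulsion formulation diluted in water to a set rate went onto the water surface; scored three weeks later.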

windgrass = experiment: Test Example 5: herbicidal effect by foliage application, plastic box (Table 20, symbol L); format: in vivo, windgrass (Apera spica-venti); details: foliage application, three weeks after application; for L: windgrass, herbicidal effect grade: 320 g/ha
How it was run: as §1

Japanese bulrush [3] = experiment: Test Example 1: herbicidal activity, application before weed generation under submerged conditions (Table 16, symbol B); format: in vivo, Japanese bulrush (Schoenoplectus juncoides); details: for Herbicidal effect, B: Japanese bulrush: amount of applied herbicide 320 g/ha
How it was run: as §2

green foxtail = experiment: Test Example 5: herbicidal effect by foliage application, plastic box (Table 20, symbol G); format: in vivo, green foxtail (Setaria viridis); details: foliage application, three weeks after application; for G: green foxtail, herbicidal effect grade: 320 g/ha
How it was run: as §1

wild oat = experiment: Test Example 5: herbicidal effect by foliage application, plastic box (Table 20, symbol I); format: in vivo, wild oat (Avena fatua); details: foliage application, three weeks after application; for I: wild oat, herbicidal effect grade: 320 g/ha
How it was run: as §1

velvetleaf = experiment: Test Example 5: herbicidal effect by foliage application, plastic box (Table 20, symbol M); format: in vivo, velvetleaf (Abutilon theophrasti); details: foliage application, three weeks after application; for M: velvetleaf, herbicidal effect grade: 320 g/ha
How it was run: as §1

blackgrass = experiment: Test Example 5: herbicidal effect by foliage application, plastic box (Table 20, symbol J); format: in vivo, blackgrass (Alopecurus myosuroides); details: foliage application, three weeks after application; for J: blackgrass, herbicidal effect grade: 320 g/ha
How it was run: as §1

Chinese sprangletop = experiment: Test Example 3: herbicidal effect by foliage application, Wagner pot (Table 18, symbol D); format: in vivo, chinese sprangletop (Leptochloa chinensis); details: for herbicidal effect on D: Chinese sprangletop: amount of applied herbicide 320 g/ha
How it was run: (§4)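 Plants were sown in alluvial soil held under 0.1–0.5 cm standing water and grown 14 days in a greenhouse at 25–30 °C. An emulsifiable formulation, water-diluted to the set dose, was then sprayed onto the foliage, and effects were scored three weeks later using previously defined criteria.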

late watergrass [4] = experiment: Test Example 2: herbicidal activity, application during weed generation under submerged conditions (Table 17, symbol A); format: in vivo, late watergrass (Echinochloa oryzicola); details: AAH 320 g/ha; application during weed generation, submerged conditions
How it was run: as §3

southern crabgrass = experiment: Test Example 5: herbicidal effect by foliage application, plastic box (Table 20, symbol F); format: in vivo, southern crabgrass (Digitaria ciliaris); details: foliage application, three weeks after application; for F: southern crabgrass, herbicidal effect grade: 320 g/ha
How it was run: as §1

oval-leafed pondweed [5] = experiment: Test Example 2: herbicidal activity, application during weed generation under submerged conditions (Table 17, symbol C); format: in vivo, oval-leafed pondweed (Monochoria vaginalis); details: AAH 320 g/ha; application during weed generation, submerged conditions
How it was run: as §3

barnyard grass [6] = experiment: Test Example 5: herbicidal effect by foliage application, plastic box (Table 20, symbol H); format: in vivo, barnyard grass (Echinochloa crus-galli); details: foliage application, three weeks after application; for H: barnyard grass, herbicidal effect grade: 320 g/ha
How it was run: as §1

lambsquarters = experiment: Test Example 5: herbicidal effect by foliage application, plastic box (Table 20, symbol O); format: in vivo, lambsquarters (Chenopodium album); details: foliage application, three weeks after application; for O: lambsquarters, herbicidal effect grade: 320 g/ha
How it was run: as §1

redroot pigweed = experiment: Test Example 5: herbicidal effect by foliage application, plastic box (Table 20, symbol N); format: in vivo, redroot pigweed (Amaranthus retroflexus); details: foliage application, three weeks after application; for N: redroot pigweed, herbicidal effect grade: 320 g/ha
How it was run: as §1

persian speedwell = experiment: Test Example 5: herbicidal effect by foliage application, plastic box (Table 20, symbol R); format: in vivo, Persian speedwell (Veronica persica); details: foliage application, three weeks after application; for R: persian speedwell, herbicidal effect grade: 320 g/ha
How it was run: as §1

barnyard grass [7] = experiment: Test Example 3: herbicidal effect by foliage application, Wagner pot (Table 18, symbol H); format: in vivo, barnyard grass (Echinochloa crus-galli); details: for herbicidal effect on H: barnyard grass: amount of applied herbicide 320 g/ha
How it was run: as §4

late watergrass [8] = experiment: Test Example 1: herbicidal activity, application before weed generation under submerged conditions (Table 16, symbol A); format: in vivo, late watergrass (Echinochloa oryzicola); details: for Herbicidal effect, A: late watergrass: amount of applied herbicide 320 g/ha
How it was run: as §2

rice flat sedge = experiment: Test Example 3: herbicidal effect by foliage application, Wagner pot (Table 18, symbol E); format: in vivo, rice flat sedge (Cyperus iria); details: for herbicidal effect on E: rice flat sedge: amount of applied herbicide 320 g/ha
How it was run: as §4

| Structure (SMILES) | herbicidal effect rating, B: Japanese bulrush (Japanese bulrush [2]) | herbicidal effect rating, A: late watergrass (late watergrass [4]) | herbicidal effect rating, C: oval-leafed pondweed (oval-leafed pondweed [5]) | P: chickweed, herbicidal effect grade (chickweed) | K: Italian ryegrass, herbicidal effect grade (Italian ryegrass) | Herbicidal effect, C: oval-leafed pondweed (oval-leafed pondweed [1]) | L: windgrass, herbicidal effect grade (windgrass) | Herbicidal effect, B: Japanese bulrush (Japanese bulrush [3]) | G: green foxtail, herbicidal effect grade (green foxtail) | I: wild oat, herbicidal effect grade (wild oat) | M: velvetleaf, herbicidal effect grade (velvetleaf) | J: blackgrass, herbicidal effect grade (blackgrass) | herbicidal effect on D: Chinese sprangletop (Chinese sprangletop) | F: southern crabgrass, herbicidal effect grade (southern crabgrass) | H: barnyard grass, herbicidal effect grade (barnyard grass [6]) | O: lambsquarters, herbicidal effect grade (lambsquarters) | N: redroot pigweed, herbicidal effect grade (redroot pigweed) | R: persian speedwell, herbicidal effect grade (persian speedwell) | herbicidal effect on H: barnyard grass (barnyard grass [7]) | Herbicidal effect, A: late watergrass (late watergrass [8]) | other results |
| --- | --- | --- | --- | --- | --- | --- | --- | --- | --- | --- | --- | --- | --- | --- | --- | --- | --- | --- | --- | --- | --- |
| CCCC(=O)Oc1c(C)nn(C)c(=O)c1-c1c(-c2ccc([Si](C)(C)C)cc2)sc2ccccc12 [1-154] | 2 (Herbicidal rate of 20% or more and less than 40%) | 0 (Herbicidal rate of 5% or less (almost no effect)) | 0 (Herbicidal rate of 5% or less (almost no effect)) | – | – | – | – | – | – | – | – | – | – | – | – | – | – | – | – | – | P: chickweed, herbicidal effect (chickweed; AAH 320 g/ha): 0 (Herbicidal rate of 5% or less (almost no effect)); K: Italian ryegrass, herbicidal effect (Italian ryegrass; AAH 320 g/ha): 0 (Herbicidal rate of 5% or less (almost no effect)); Herbicidal effect on C: oval-leafed pondweed (grade 0-5) (oval-leafed pondweed [1]; 320 g/ha applied herbicide): 0 (Herbicidal rate of 5% or less (almost no effect)); L: windgrass, herbicidal effect (windgrass; AAH 320 g/ha): 0 (Herbicidal rate of 5% or less (almost no effect)); Herbicidal effect on B: Japanese bulrush (grade 0-5) (Japanese bulrush [3]; 320 g/ha applied herbicide): 0 (Herbicidal rate of 5% or less (almost no effect)); G: green foxtail, herbicidal effect (green foxtail; AAH 320 g/ha): 0 (Herbicidal rate of 5% or less (almost no effect)); I: wild oat, herbicidal effect (wild oat; AAH 320 g/ha): 0 (Herbicidal rate of 5% or less (almost no effect)); M: velvetleaf, herbicidal effect (velvetleaf; AAH 320 g/ha): 0 (Herbicidal rate of 5% or less (almost no effect)); J: blackgrass, herbicidal effect (blackgrass; AAH 320 g/ha): 0 (Herbicidal rate of 5% or less (almost no effect)); herbicidal effect on D (Chinese sprangletop), rating 0-5 (Chinese sprangletop; 320 g/ha): 3 (Herbicidal rate of 40% or more and less than 70%); F: southern crabgrass, herbicidal effect (southern crabgrass; AAH 320 g/ha): 0 (Herbicidal rate of 5% or less (almost no effect)); H: barnyard grass, herbicidal effect (barnyard grass [6]; AAH 320 g/ha): 0 (Herbicidal rate of 5% or less (almost no effect)); O: lambsquarters, herbicidal effect (lambsquarters; AAH 320 g/ha): 4 (Herbicidal rate of 70% or more and less than 90%); N: redroot pigweed, herbicidal effect (redroot pigweed; AAH 320 g/ha): 3 (Herbicidal rate of 40% or more and less than 70%); R: persian speedwell, herbicidal effect (persian speedwell; AAH 320 g/ha): 4 (Herbicidal rate of 70% or more and less than 90%); herbicidal effect on H (barnyard grass), rating 0-5 (barnyard grass [7]; 320 g/ha): 2 (Herbicidal rate of 20% or more and less than 40%); Herbicidal effect on A: late watergrass (grade 0-5) (late watergrass [8]; 320 g/ha applied herbicide): 2 (Herbicidal rate of 20% or more and less than 40%); herbicidal effect on E (rice flat sedge), rating 0-5 (rice flat sedge; 320 g/ha): 2 (Herbicidal rate of 20% or more and less than 40%) |
| CCCC(=O)Oc1c(CC)nn(C)c(=O)c1-c1c(-c2ccc(Cl)cc2)sc2ccc(F)cc12 [2-409] | 3 (Herbicidal rate of 40% or more and less than 70%) | 2 (Herbicidal rate of 20% or more and less than 40%) | 3 (Herbicidal rate of 40% or more and less than 70%) | 4 (Herbicidal rate of 70% or more and less than 90%) | 1 (Herbicidal rate of 5% or more and less than 20%) | 2 (Herbicidal rate of 20% or more and less than 40%) | 0 (Herbicidal rate of 5% or less (almost no effect)) | 3 (Herbicidal rate of 40% or more and less than 70%) | 4 (Herbicidal rate of 70% or more and less than 90%) | 0 (Herbicidal rate of 5% or less (almost no effect)) | 5 (Herbicidal rate of 90% or more (almost completely withered)) | 0 (Herbicidal rate of 5% or less (almost no effect)) | 4 (Herbicidal rate of 70% or more and less than 90%) | 3 (Herbicidal rate of 40% or more and less than 70%) | 3 (Herbicidal rate of 40% or more and less than 70%) | 4 (Herbicidal rate of 70% or more and less than 90%) | 5 (Herbicidal rate of 90% or more (almost completely withered)) | 4 (Herbicidal rate of 70% or more and less than 90%) | 5 (Herbicidal rate of 90% or more (almost completely withered)) | 3 (Herbicidal rate of 40% or more and less than 70%) | herbicidal effect on E: rice flat sedge (rice flat sedge): 5 (Herbicidal rate of 90% or more (almost completely withered)) |
| CCCC(=O)Oc1c(CC)nn(C)c(=O)c1-c1c(-c2ccc(OC(F)(F)F)cc2)sc2ccc(F)cc12 [2-413] | 1 (Herbicidal rate of 5% or more and less than 20%) | 3 (Herbicidal rate of 40% or more and less than 70%) | 0 (Herbicidal rate of 5% or less (almost no effect)) | 5 (Herbicidal rate of 90% or more (almost completely withered)) | 2 (Herbicidal rate of 20% or more and less than 40%) | 0 (Herbicidal rate of 5% or less (almost no effect)) | 0 (Herbicidal rate of 5% or less (almost no effect)) | 0 (Herbicidal rate of 5% or less (almost no effect)) | 3 (Herbicidal rate of 40% or more and less than 70%) | 0 (Herbicidal rate of 5% or less (almost no effect)) | 4 (Herbicidal rate of 70% or more and less than 90%) | 0 (Herbicidal rate of 5% or less (almost no effect)) | 4 (Herbicidal rate of 70% or more and less than 90%) | 0 (Herbicidal rate of 5% or less (almost no effect)) | 1 (Herbicidal rate of 5% or more and less than 20%) | 4 (Herbicidal rate of 70% or more and less than 90%) | 4 (Herbicidal rate of 70% or more and less than 90%) | 5 (Herbicidal rate of 90% or more (almost completely withered)) | 5 (Herbicidal rate of 90% or more (almost completely withered)) | 3 (Herbicidal rate of 40% or more and less than 70%) | herbicidal effect on E: rice flat sedge (rice flat sedge): 4 (Herbicidal rate of 70% or more and less than 90%) |
